{
  "source": "patent US20030100479A1",
  "about": "“Gene polymorphisms and response to treatment” (priority 2001, published 2003)",
  "key": {"[1]": {"assay": "Dose-ranging clinical trial of GW320659 for weight loss: absolute change in body weight week 0 to week 24, by genotype", "type": "in vivo, human", "conditions": "for Placebo adjusted mean absolute change in body weight / Placebo adjusted mean absolute change in weight: 15 mg dose group", "from_the_text": "The present inventors determined that the genetic polymorphisms identified herein are associated with differences in phenotypic response to treatment with the neuronal monoamine reuptake inhibitor GW320659. In the present study, the genotyped subjects had been recruited from a randomized placebo-controlled study of GW320659 for the treatment of obesity, in conjunction with a mildly hypocaloric diet and brief weight management guidance. Subjects had been randomized into one of five treatment groups: placebo or GW320659 at 2.5 mg/day, 5 mg/day, 10 mg/day, or 15 mg/day; outcome measurements included weight loss over baseline weight and changes in supine heart rate, supine diastolic blood pressure, and supine systolic blood pressure.\nThe primary outcome measurement was the individual's absolute change from baseline body weight (weight at week 0, randomization visit) to weight after 24 weeks of treatment. Genotypes associated with at least a 5.8 kg average weight loss over the 24 week study for subjects receiving 15 mg/day GW320659 are shown in Table 2. The average weight loss in the total (non-genotyped) clinical trial of GW320659 (at the 15 mg/day dosage) was 3.7 Kg (data not shown).\nUsing genotyping methods as are well known in the art, genetic data were obtained from approximately 200 of more than 500 human subjects enrolled in a dose-ranging efficacy and safety study of GW320659 for weight loss (main study group; a randomized, double-blind, placebo controlled, dose-ranging clinical trial); GW320659 was used in conjunction with a mildly hypocaloric diet and brief weight management guidance. Subjects were between the ages of 18-65 years, with a Body Mass Index (BMI) of 30-40, and were not on any psychotropic medications or other anti-obesity medications. Subjects were randomized into one of five treatment groups: placebo or GW320659 at 2.5 mg/day, 5 mg/day, 10 mg/day, or 15 mg/day (oral administration). In the main study group, for the GW320659 15 mg/day dosage, average weight loss was approximately 3.7 kg (108 subjects; data not shown).\n(§1) Subjects were assessed for various parameters, including absolute change in body weight from week 0 to week 24 of the study; supine heart rate, diastolic blood pressure and systolic blood pressure at multiple predetermined time-points across the study; and change in Food Craving Inventory (Total) score from week 0 to week 24.\nChange in body weight was analyzed using Analysis of Variance (ANOVA); body weight at Week 0 (randomization visit) was used as the baseline weight. The absolute change from baseline in body weight at week 24 was the dependent (response) variable. The primary independent variables were treatment group and genotype. Treatment by genotype interaction was assessed with the appropriate orthogonal trend (treatment) by genotype contrasts. […] The primary model is denoted as follows:\nRecursive partioning (HelixTree Software, May 1, 2001) was used to further examine the data. Due to sample size constraints, a combination of automatic and manual splits were used to best describe the underlying relationships between genotypes, treatment dose, and other demographic variables for each selected endpoint. Recursive partioning was applied to the following endpoints: change in weight, change in food craving (total score) inventory, change (Area Under the Curve (AUC) adjusted) in supine heart rate, and change (AUC adjusted) in supine diastolic blood pressure.\nThe multilocus genotypes from each individual were used to enumerate all possible haplotypes. These haplotypes were assigned starting frequencies. The haplotype frequencies were updated with frequencies calculated from all the possible haplotypes from each individual in the sample. This continued until the frequencies were constant from iteration to iteration.\nRegression-based models were used to relate inferred haplotype probabilities for each individual with the continuous response."}, "[2]": {"assay": "Clinical trial of GW320659: change in supine systolic blood pressure (time-adjusted AUC), by genotype", "type": "in vivo, human", "from_the_text": "Using genotyping methods as are well known in the art, genetic data were obtained from approximately 200 of more than 500 human subjects enrolled in a dose-ranging efficacy and safety study of GW320659 for weight loss (main study group; a randomized, double-blind, placebo controlled, dose-ranging clinical trial); GW320659 was used in conjunction with a mildly hypocaloric diet and brief weight management guidance. Subjects were between the ages of 18-65 years, with a Body Mass Index (BMI) of 30-40, and were not on any psychotropic medications or other anti-obesity medications. […]\nas §1\nAnalyses of changes in cardiovascular endpoints (HR, SBP, DBP, all measured in supine subjects) were conducted individually for each of the polymorphic sites, and analyzed as follows. Vital sign assessments at all post-baseline visits were analyzed utilizing a repeated measures (mixed) ANOVA model. Genotype by treatment interactions were assessed. […]"}, "[3]": {"tested_on": "dopamine reuptake", "conditions": "Kelley et al., J. Med. Chem. 39:347 (1996); cited from earlier work"}, "[4]": {"conditions": "NET1 T342C (2,2) and without DRD2 C12121T (2,2), 10 mg/day or 15 mg/day"}, "[5]": {"conditions": "subgroup 2/2 NET1T342C and/or 2/2 NET1G155A and/or 2/2 NR1G6435A, 10 mg/day+15 mg/day, 26 subjects"}},
  "note": "Entries after “also recorded” stand apart in the source; their conditions may differ.",
  "data": [
    {"smiles": "C[C@@H]1CO[C@@](O)(c2cc(F)cc(F)c2)[C@H](C)N1.Cl", "note": "[GW320659, (2S,3S,5R)-2-(3,5-difluorophenyl)-3,5-dimethyl-2-morpholinol]", "values": [
      {"measurement": "Average weight loss, main study group", "setting": "[1]; 15 mg/day oral, 108 subjects, data not shown", "value": "approximately 3.7 kg"},
      {"measurement": "Average weight loss, total (non-genotyped) clinical trial", "setting": "[1]; 15 mg/day, 24 weeks, not divided by genotype, data not shown", "value": 3.7, "unit": "kg"},
      {"measurement": "Average weight loss", "setting": "[1]; 5HTT Del-Ins (1,2) genotype, 15 mg/day dose", "value": -5.2, "unit": "kg"},
      {"measurement": "Average Weight Loss (Kg)(range)", "setting": "[1]; 5HTT G160A genotype 2,2, 15 mg/day, 24 weeks", "value": "−6.1 (−10.3, −3.2) Kg"},
      {"measurement": "Average Weight Loss (Kg)(range)", "setting": "[1]; 5HTT G769T genotype 1,1, 15 mg/day, 24 weeks", "value": "−6.0 (−9.5, −3.2) Kg"},
      {"measurement": "Average Weight Loss (Kg)(range)", "setting": "[1]; DAT1 genotype 9,9, 15 mg/day, 24 weeks", "value": "−7.6 (−22.1, −1.1) Kg"},
      {"measurement": "Average Weight Loss (Kg)(range)", "setting": "[1]; DAT1 genotype 10,9, 15 mg/day, 24 weeks", "value": "−6.6 (−20.4, 1.3) Kg"},
      {"measurement": "Average Weight Loss (Kg)(range)", "setting": "[1]; NET1 C120A genotype 2,2, 15 mg/day, 24 weeks", "value": "−5.8 (−20.4, 1.3) Kg"},
      {"measurement": "Absolute change in weight (largest for any sub-group)", "setting": "[1]; NET1 G155A 2,2 genotype, 15 mg dose, n=4", "value": -9.0, "unit": "kg"},
      {"measurement": "Average Weight Loss (Kg)(range)", "setting": "[1]; NET1 G155A genotype 2,2, 15 mg/day, 24 weeks", "value": "−9.0 (−20.4, −3.3) Kg"},
      {"measurement": "Mean absolute change in weight", "setting": "[1]; NET1 T342C 2,2 genotype, 15 mg dose, n=7", "value": -7.1, "unit": "kg"},
      {"measurement": "Weight loss compared to subjects with alternate genotypes", "setting": "[1]; [4]", "value": "increased weight loss"},
      {"measurement": "Placebo adjusted mean absolute change in body weight", "setting": "[1]; NET1 T342C genotype 1,1", "value": -2.8, "unit": "kg"},
      {"measurement": "Placebo adjusted mean absolute change in body weight", "setting": "[1]; NET1 T342C genotype 1,2", "value": -3.3, "unit": "kg"},
      {"measurement": "Placebo adjusted mean absolute change in body weight", "setting": "[1]; NET1 T342C genotype 2,2", "value": -7.3, "unit": "kg"},
      {"measurement": "Average Weight Loss (Kg)(range)", "setting": "[1]; NET1 T342C genotype 2,2, 15 mg/day, 24 weeks", "value": "−7.1 (−13.7, 0) Kg"},
      {"measurement": "Average Weight Loss (Kg)(range)", "setting": "[1]; NR1 G1001C genotype 1,2, 15 mg/day, 24 weeks", "value": "−6.0 (−13.7, −0.9) Kg"},
      {"measurement": "Placebo adjusted mean absolute change in weight", "setting": "[1]; NR1 G6435A genotype 1,1", "value": -4.4, "unit": "kg"},
      {"measurement": "Placebo adjusted mean absolute change in weight", "setting": "[1]; NR1 G6435A genotype 1,2", "value": -1.9, "unit": "kg"},
      {"measurement": "Placebo adjusted mean absolute change in weight", "setting": "[1]; NR1 G6435A genotype 2,2, three placebo and four GW320659 subjects", "value": -10.3, "unit": "kg"},
      {"measurement": "Average Weight Loss (Kg)(range)", "setting": "[1]; NR1 G6435A genotype 2,2, 15 mg/day, 24 weeks", "value": "−6.9 (−9.2, −3.3) Kg"},
      {"measurement": "Weight Loss at 24 weeks, Mean", "setting": "[1]; haplotype 1,1 NET1G155A NET1T342C, All Ethnicities, 10-15 mg (Table 4)", "value": "−2.007"},
      {"measurement": "Weight Loss at 24 weeks, Mean", "setting": "[1]; haplotype 1,1 NET1G155A NET1T342C, Caucasians, 10-15 mg (Table 5)", "value": "−1.739"},
      {"measurement": "Weight Loss at 24 weeks, Mean", "setting": "[1]; haplotype 1,2 NET1G155A NET1T342C, All Ethnicities, 10-15 mg (Table 4)", "value": "−4.325"},
      {"measurement": "Weight Loss at 24 weeks, Mean", "setting": "[1]; haplotype 1,2 NET1G155A NET1T342C, Caucasians, 10-15 mg (Table 5)", "value": "−4.416"},
      {"measurement": "Weight Loss at 24 weeks, Mean", "setting": "[1]; haplotype 2,1 NET1G155A NET1T342C, All Ethnicities, 10-15 mg (Table 4)", "value": "−3.886"},
      {"measurement": "Weight Loss at 24 weeks, Mean", "setting": "[1]; haplotype 2,1 NET1G155A NET1T342C, Caucasians, 10-15 mg (Table 5)", "value": "−2.9211"},
      {"measurement": "Weight Loss at 24 weeks, Mean", "setting": "[1]; haplotype 2,2 NET1G155A NET1T342C, All Ethnicities, 10-15 mg (Table 4)", "value": "−9.99"},
      {"measurement": "Weight Loss at 24 weeks, Mean", "setting": "[1]; haplotype 2,2 NET1G155A NET1T342C, Caucasians, 10-15 mg (Table 5)", "value": "−9.413"},
      {"measurement": "Mean weight loss", "setting": "[1]; subgroup 2,2 for NET1T342C and/or NET1G155A and/or NR1G6435A, 10 mg/day+15 mg/day combined, 24 weeks", "value": 6.05, "unit": "kg"},
      {"measurement": "Change in weight at Week 24", "setting": "[1]; [5]", "value": -6.05, "unit": "kg"},
      {"measurement": "Mean weight loss at 24 weeks", "setting": "[1]; subgroup 2/2 for NET1T342C and not 2/2 for DRD2C12121T", "value": "≥ 6", "unit": "kg"},
      {"measurement": "Mean weight loss", "setting": "[1]; subgroup DAT1VNTR 10,9 or 9,9, 15 mg/day, 24 weeks", "value": 6.89, "unit": "kg"},
      {"measurement": "Changes in systolic blood pressure compared to subjects with alternate genotypes", "setting": "[2]; [4]", "value": "decreased changes in heart rate and blood pressure; also recorded: comparatively small changes in HR, SBP and DBP"},
      {"measurement": "Systolic Blood Pressure (mean time adjusted change)", "setting": "[2]; [5]", "value": 0.9733},
      {"measurement": "Inhibition of dopamine reuptake", "setting": "[3]", "value": "weaker reuptake inhibition effects on dopamine reuptake"}
    ]}
  ]
}
